Source: paper PMC11525138 (The Journal of Biological Chemistry, 2024)
Like-named read-outs stand apart in the source and are kept apart here.

Assays:
NanHGH33 [1] = target: T1, NanHGH33 (Clostridium perfringens, UniProt P10481); assay: biochemical; type: biochemical
NanIGH33 [2] = target: T2, NanIGH33 (Clostridium perfringens, UniProt Q59310); assay: biochemical; type: biochemical
NanJGH33 [3] = target: T3, NanJGH33 (Clostridium perfringens, UniProt A0A0H2YT71); assay: biochemical; type: biochemical
T3 sequence (A0A0H2YT71 373-820 limits assumed): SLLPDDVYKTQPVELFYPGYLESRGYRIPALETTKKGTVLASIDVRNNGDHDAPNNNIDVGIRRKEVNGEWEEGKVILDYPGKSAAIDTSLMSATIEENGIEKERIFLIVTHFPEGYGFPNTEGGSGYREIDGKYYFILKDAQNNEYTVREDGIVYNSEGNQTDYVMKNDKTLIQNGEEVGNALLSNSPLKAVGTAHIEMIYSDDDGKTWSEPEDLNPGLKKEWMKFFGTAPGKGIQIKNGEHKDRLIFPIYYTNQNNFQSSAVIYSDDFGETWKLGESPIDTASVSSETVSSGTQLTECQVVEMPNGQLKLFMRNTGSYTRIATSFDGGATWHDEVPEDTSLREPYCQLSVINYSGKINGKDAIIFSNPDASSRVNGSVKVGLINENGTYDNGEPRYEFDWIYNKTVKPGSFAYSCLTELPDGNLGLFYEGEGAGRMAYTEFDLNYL

NanHGH33 [4] = target: T1, NanHGH33; type: biochemical; conditions: pH 4.5
NanIGH33 [5] = target: T2, NanIGH33; type: biochemical; conditions: pH 4.5
NanJGH33 [6] = target: T3, NanJGH33; type: biochemical; conditions: pH 4.5
C. perfringens CP1 = type: cell-based, Clostridium perfringens; conditions: for Doubling Time: without DANA 0.762; for k (rate constant) of exponential growth: without DANA 0.909 ± 0.098
NanHGH33 [7] = target: T1, NanHGH33; type: biochemical
NanIGH33 [8] = target: T2, NanIGH33; type: biochemical
NanJGH33 [9] = target: T3, NanJGH33; type: biochemical

T1 sequence (P10481 whole entry, looked up): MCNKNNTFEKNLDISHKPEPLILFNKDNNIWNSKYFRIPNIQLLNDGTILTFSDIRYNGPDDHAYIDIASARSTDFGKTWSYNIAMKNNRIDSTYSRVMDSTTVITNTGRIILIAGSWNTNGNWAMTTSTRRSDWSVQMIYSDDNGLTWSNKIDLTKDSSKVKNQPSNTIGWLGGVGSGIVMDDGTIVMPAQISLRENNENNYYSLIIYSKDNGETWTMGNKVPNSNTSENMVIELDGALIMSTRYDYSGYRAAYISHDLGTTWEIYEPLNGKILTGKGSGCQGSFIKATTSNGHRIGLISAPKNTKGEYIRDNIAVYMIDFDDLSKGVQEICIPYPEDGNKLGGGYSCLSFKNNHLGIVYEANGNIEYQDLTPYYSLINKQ
T2 sequence (Q59310 243-694 limits assumed): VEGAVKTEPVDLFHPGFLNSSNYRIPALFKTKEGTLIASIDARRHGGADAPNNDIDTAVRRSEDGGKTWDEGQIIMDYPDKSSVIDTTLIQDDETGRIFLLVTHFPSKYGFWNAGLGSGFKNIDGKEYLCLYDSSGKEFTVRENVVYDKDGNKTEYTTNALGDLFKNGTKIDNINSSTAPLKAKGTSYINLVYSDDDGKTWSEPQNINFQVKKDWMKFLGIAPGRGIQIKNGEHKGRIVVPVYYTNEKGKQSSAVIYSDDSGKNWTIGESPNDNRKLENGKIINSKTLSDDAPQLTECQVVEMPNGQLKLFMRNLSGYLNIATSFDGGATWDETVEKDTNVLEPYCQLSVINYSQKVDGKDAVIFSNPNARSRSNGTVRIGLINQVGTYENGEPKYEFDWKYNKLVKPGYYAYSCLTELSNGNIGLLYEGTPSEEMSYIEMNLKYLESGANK

SMILES: CC(=O)N[C@H]1[C@H]([C@H](O)[C@H](O)CO)OC(C(=O)O)=C[C@@H]1N=C(N)N [Zanamivir, 4-guanidino-2,4-dideoxy-2,3-dehydro-N-acetylneuraminic acid]
- Ki (NanHGH33 [1]): > 100 µM
- inhibition of NanHGH33 (in words) (NanHGH33 [1]): did not display any detectable inhibition
- Ki (NanIGH33 [2]): > 100 µM
- inhibition of NanIGH33 (in words) (NanIGH33 [2]): did not display any detectable inhibition
- Ki (NanJGH33 [3]): > 100 µM
- inhibition of NanJGH33 (in words) (NanJGH33 [3]): did not display any detectable inhibition

SMILES: CC(=O)N[C@H]1[C@H]([C@H](O)[C@H](O)CO)O[C@@](O[C@H]2[C@@H](O)[C@@H](CO)O[C@@H](O[C@H]3[C@H](O)[C@@H](O)C(O)O[C@@H]3CO)[C@@H]2O)(C(=O)O)C[C@@H]1O (stereo partly drawn) [3′-SL, 3′-sialyllactose]
- hydrolysis of substrate in competition assay (in words) (NanHGH33 [4]): hydrolyzed
- hydrolysis of substrate in competition assay (in words) (NanIGH33 [5]): roughly equal rates
- hydrolysis of substrate in competition assay (in words) (NanJGH33 [6]): processed both substrates very rapidly

SMILES: CC(=O)N[C@H]1[C@H]([C@H](O)[C@H](O)CO)O[C@@](OC[C@H]2O[C@@H](O[C@H]3[C@H](O)[C@@H](O)[C@H](O)O[C@@H]3CO)[C@H](O)[C@@H](O)[C@H]2O)(C(=O)O)C[C@@H]1O [6′-SL, 6′-sialyllactose]
- hydrolysis of substrate in competition assay (in words) (NanHGH33 [4]): did not show any significant capacity to hydrolyze
- hydrolysis of substrate in competition assay (in words) (NanIGH33 [5]): roughly equal rates
- hydrolysis of substrate in competition assay (in words) (NanJGH33 [6]): processed both substrates very rapidly

SMILES: CC(=O)N[C@H]1[C@H]([C@H](O)[C@H](O)CO)OC(C(=O)O)=C[C@@H]1O [DANA, N-acetyl-2,3-dehydro-2-deoxyneuraminic acid]
- Ki (NanHGH33 [1]; pH 7, read-out: Ki): 33.9 ± 4.4 µM
- Ki (NanIGH33 [2]; pH 6.5, read-out: Ki): 3.1 ± 0.5 µM
- Ki (NanJGH33 [3]; pH 6.8, read-out: Ki): 3.2 ± 0.3 µM
- effect on growth of C. perfringens in the presence of 3′SL (C. perfringens CP1; 0.5% 3′SL as substrate, 1 mM DANA required for a clear effect): reduce the growth
- Doubling Time (C. perfringens CP1; 3'SL + 0.01 mM DANA): 0.571 h
- k (rate constant) of exponential growth (C. perfringens CP1; 3'SL + 0.01 mM DANA): 1.214 ± 0.085
- Doubling Time (C. perfringens CP1; 3'SL + 0.1 mM DANA): 0.576 h
- k (rate constant) of exponential growth (C. perfringens CP1; 3'SL + 0.1 mM DANA): 1.202 ± 0.066
- Doubling Time (C. perfringens CP1; 3'SL + 1 mM DANA): 1.725 h
- k (rate constant) of exponential growth (C. perfringens CP1; 3'SL + 1 mM DANA): 0.402 ± 0.019
- effect on C. perfringens consumption of 3′-SL (C. perfringens CP1; 24 h culture supernatants, HPAEC-PAD quantification): protect against C. perfringens consumption of 3′-SL
- reduction of growth of C. perfringens with glucose as the sole carbohydrate source (C. perfringens CP1; glucose as sole carbohydrate source, data not shown): not
- lactose released from 3′- and 6′-SL in the presence of inhibitor (NanHGH33 [7]): reduced the amount of lactose released
- lactose released from 3′- and 6′-SL in the presence of inhibitor (NanIGH33 [8]): reduced the amount of lactose released
- lactose released from 3′- and 6′-SL in the presence of inhibitor (NanJGH33 [9]): reduced the amount of lactose released

SMILES: CC(=O)N[C@H]1NC[C@H](C(=O)O)[C@H](O)[C@@H]1O [Siastatin B, (3S, 4S, 5R, 6R)-6-(acetylamino)-4,5-dihydroxy-3-piperidinecarboxylic acid]
- Ki (NanHGH33 [1]): 125 ± 16.2 µM
- Ki (NanIGH33 [2]): 10.7 ± 2 µM
- Ki (NanJGH33 [3]): 13.3 ± 1.6 µM

SMILES: CCOC(=O)C1=C[C@@H](OC(CC)CC)[C@H](NC(C)=O)[C@@H](N)C1 [Oseltamivir, (3R,4R,5S)-4-acetamido-5-amino-3-(1-ethylpropoxy)-1-cyclohexene-1-carboxylic acid ethyl ester]
- Ki (NanHGH33 [1]): > 100 µM
- inhibition of NanHGH33 (in words) (NanHGH33 [1]): did not display any detectable inhibition
- Ki (NanIGH33 [2]): > 100 µM
- inhibition of NanIGH33 (in words) (NanIGH33 [2]): did not display any detectable inhibition
- Ki (NanJGH33 [3]): > 100 µM
- inhibition of NanJGH33 (in words) (NanJGH33 [3]): did not display any detectable inhibition

SMILES: CC(=O)N[C@H]1[C@H]([C@H](O)[C@H](O)CO)O[C@@](Oc2c[nH]c3ccc(Br)c(Cl)c23)(C(=O)O)C[C@@H]1O [X-Neu5Ac, 5-bromo-4-chloro-3-indolyl α-D-N-acetylneuraminic acid]
- Km (NanHGH33 [1]; pH 7): 280 ± 62.7 µM
- kcat (NanHGH33 [1]; pH 7): 13.3 ± 1.2 s⁻¹
- Km (NanIGH33 [2]; pH 6.5): 123 ± 25.4 µM
- Vmax (NanIGH33 [2]; pH 6.5): 0.09 ± 0.01 µM/s
- kcat (NanIGH33 [2]; pH 6.5): 9.2 ± 0.6 s⁻¹
- kcat/Km of NanJGH33 relative to NanHGH33 (NanJGH33 [3]): ~3.6 fold
- kcat/Km of NanJGH33 relative to NanIGH33 (NanJGH33 [3]): approximately 2 fold
- Km (NanJGH33 [3]; pH 6.8): 87 ± 10.7 µM
- kcat (NanJGH33 [3]; pH 6.8): 15.3 ± 0.6 s⁻¹
